Source: patent US20240132513A1, “BENZAZEPINE DERIVATIVES, COMPOSITIONS, AND METHODS FOR TREATING COGNITIVE IMPAIRMENT” (AGENEBIO, INC., priority 2022, published 2024)
Like-named read-outs stand apart in the source and are kept apart here.

Experiments:
[1] = biological target: α5β3γ2 GABAA R (Homo sapiens, UniProt P18507+P31644); assay: Binding activity on GABAA R: inhibition of [3H]Ro15-1788 binding, α5 containing receptor
How it was run: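 Membranes from dexamethasone-induced (0.5 μM, 1 day) Ltk cells stably expressing α5β3γ2 receptors, 0.2 mg/ml protein, incubated with [3H]Ro15-1788 for 1 h at 4 °C in 50 mM KH2PO4/1 mM EDTA/0.2 M KCl, pH 7.4. Nonspecific binding with 10 μM diazepam; bound ligand by GF/B filtration and scintillation counting, triplicates.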

[2] = biological target: T1, GABAA R (α5β2γ2) (Homo sapiens, UniProt P18507+P31644); assay: Positive allosteric modulator activity: potentiation of EC20 GABA current in oocytes; type: cell-based
T1 construct: expressed in transfected cells
T1 sequence (P31644 32-462): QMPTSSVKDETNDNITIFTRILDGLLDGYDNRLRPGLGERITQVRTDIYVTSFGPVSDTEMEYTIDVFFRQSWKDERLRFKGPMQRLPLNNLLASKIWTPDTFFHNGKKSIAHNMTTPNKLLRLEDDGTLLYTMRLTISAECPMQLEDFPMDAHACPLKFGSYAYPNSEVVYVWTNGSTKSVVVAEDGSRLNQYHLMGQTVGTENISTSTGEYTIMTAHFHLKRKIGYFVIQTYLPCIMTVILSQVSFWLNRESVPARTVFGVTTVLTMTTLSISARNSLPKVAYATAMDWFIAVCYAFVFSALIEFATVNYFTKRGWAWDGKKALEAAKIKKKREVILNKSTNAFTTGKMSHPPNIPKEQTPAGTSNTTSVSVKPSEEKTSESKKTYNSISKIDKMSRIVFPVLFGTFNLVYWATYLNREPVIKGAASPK
T1 sequence (P47870 25-512 partner limits assumed): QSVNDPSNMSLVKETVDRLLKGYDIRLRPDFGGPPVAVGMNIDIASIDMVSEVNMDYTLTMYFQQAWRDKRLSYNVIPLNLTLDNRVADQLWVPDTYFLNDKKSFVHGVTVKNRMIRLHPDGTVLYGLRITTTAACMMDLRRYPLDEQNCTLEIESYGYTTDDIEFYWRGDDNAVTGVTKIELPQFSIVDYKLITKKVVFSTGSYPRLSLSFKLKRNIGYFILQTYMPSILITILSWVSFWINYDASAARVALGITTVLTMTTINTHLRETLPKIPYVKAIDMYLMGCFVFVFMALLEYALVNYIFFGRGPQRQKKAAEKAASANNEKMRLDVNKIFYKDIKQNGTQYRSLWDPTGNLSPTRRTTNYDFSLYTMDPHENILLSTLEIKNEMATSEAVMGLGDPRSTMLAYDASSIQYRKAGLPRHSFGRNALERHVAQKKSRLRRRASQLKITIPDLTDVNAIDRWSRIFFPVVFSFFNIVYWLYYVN
T1 sequence (P18507 40-475): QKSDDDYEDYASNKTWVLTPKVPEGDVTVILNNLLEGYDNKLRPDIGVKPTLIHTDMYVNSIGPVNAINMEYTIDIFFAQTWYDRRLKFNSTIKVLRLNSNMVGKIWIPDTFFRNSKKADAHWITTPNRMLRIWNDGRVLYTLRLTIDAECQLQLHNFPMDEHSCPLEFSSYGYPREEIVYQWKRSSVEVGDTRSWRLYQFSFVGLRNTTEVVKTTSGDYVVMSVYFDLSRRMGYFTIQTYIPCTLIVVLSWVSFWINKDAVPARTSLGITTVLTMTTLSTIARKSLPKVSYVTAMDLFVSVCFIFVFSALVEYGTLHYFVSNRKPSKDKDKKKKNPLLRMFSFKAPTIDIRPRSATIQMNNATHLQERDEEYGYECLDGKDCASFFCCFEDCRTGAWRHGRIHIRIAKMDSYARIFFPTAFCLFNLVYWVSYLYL
How it was run: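 Xenopus oocytes injected with 1 ng α5:β2:γ2 cDNA (1:1:10 by weight), tested day 2, voltage-clamped at −60 mV under MBS superfusion.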

[3] = biological target: T2, GABAA α5 receptor (Rattus norvegicus, UniProt P19969); assay: GABAA α5 receptor occupancy with Ro 15-4513 tracer; type: in vivo, Long Evans rats; conditions: 0.01-10 mg/kg, i.v.
T2 construct: from tissue; host or cells: rat brain in vivo; hippocampus versus cerebellum
T2 sequence (P19969 32-464 limits assumed): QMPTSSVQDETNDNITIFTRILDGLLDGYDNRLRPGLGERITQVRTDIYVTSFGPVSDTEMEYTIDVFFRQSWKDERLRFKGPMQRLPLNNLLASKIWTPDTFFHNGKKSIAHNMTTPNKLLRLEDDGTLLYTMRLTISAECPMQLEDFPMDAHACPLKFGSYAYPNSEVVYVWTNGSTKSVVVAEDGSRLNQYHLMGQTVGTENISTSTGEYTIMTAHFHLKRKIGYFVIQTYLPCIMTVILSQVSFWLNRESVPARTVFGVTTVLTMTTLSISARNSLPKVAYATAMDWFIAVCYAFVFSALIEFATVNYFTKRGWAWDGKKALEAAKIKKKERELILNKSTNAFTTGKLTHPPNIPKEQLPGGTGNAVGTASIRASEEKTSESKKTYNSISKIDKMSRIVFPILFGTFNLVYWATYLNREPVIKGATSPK
Excerpt: Food and water were available ad libitum.

[4] = read-out: GABA α5 Functional Data: potentiation, @ 100 nM, EC20 GABA, ranges of the column heads
[5] = read-out: GABA α5 Functional Data: potentiation
[6] = ranges of the column heads, [3H]Ro15-1788, Ltk cell membranes

α5β3γ2 GABAA R, sequence (P31644 32-462): as the sequence (P31644 32-462) above
α5β3γ2 GABAA R, sequence (P28472 26-473 partner): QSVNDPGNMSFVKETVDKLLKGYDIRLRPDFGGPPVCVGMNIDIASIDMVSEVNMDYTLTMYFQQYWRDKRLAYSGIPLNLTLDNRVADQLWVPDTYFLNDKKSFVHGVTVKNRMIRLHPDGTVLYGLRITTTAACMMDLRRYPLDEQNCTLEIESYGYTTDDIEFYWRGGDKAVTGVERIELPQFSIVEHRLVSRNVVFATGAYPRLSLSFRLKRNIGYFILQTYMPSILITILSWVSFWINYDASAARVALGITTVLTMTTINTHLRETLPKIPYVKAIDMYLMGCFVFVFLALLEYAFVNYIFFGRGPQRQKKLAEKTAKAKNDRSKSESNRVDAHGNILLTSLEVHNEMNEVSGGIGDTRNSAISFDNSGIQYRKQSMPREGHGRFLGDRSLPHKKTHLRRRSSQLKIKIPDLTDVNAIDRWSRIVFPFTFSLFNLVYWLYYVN
α5β3γ2 GABAA R, sequence (P18507 40-475): as the sequence (P18507 40-475) above

| Structure (SMILES) | Ki [1] | activation at 0.1 µM [2, 4] | further results |
| --- | --- | --- | --- |
| COc1ccc2c(c1)-c1nn(CC3CCCO3)cc1Cc1c(-c3nc(C(F)(F)F)no3)ncn1-2 (stereo not shown) [Compound 264] | < 100 nM | 5 to 20% |  |
| Cn1cc2c(n1)-c1cc(Cl)ccc1-n1cnc(-c3cnn(Cc4ccccn4)c3)c1C2 [Compound 190] | < 100 nM | 20 to 50% |  |
| COc1ccc2c(c1)-c1nn(C)cc1Cc1c(-c3noc([C@H]4CCOC4)n3)ncn1-2 [Compound 257] | < 100 nM | 20 to 50% |  |
| COc1ccc2c(c1)-c1nn(CC3CCCO3)cc1Cc1c(-c3nnc(COCC(F)(F)F)o3)ncn1-2 (stereo not shown) [Compound 303] | < 100 nM | 20 to 50% |  |
| COc1ccc2c(c1)-c1nn(Cc3ccccc3F)cc1Cc1c(-c3nc(C)no3)ncn1-2 [Compound 21] | < 100 nM | 5 to 20% |  |
| CCOC(=O)c1ncn2c1Cn1c(C)nnc1-c1cc(OC)ccc1-2 |  |  | Ro 15-4513 binding in hippocampus [3]: blocked the binding of Ro154513 in the hippocampus; Ro 15-4513 levels/binding in cerebellum [3]: did not affect binding of Ro15413 in the cerebellum |
| CC(C)c1noc(-c2ncn3c2Cc2cn(Cc4ccccn4)nc2-c2cc(Cl)ccc2-3)n1 [Compound 99] | < 100 nM |  | activation at 0.1 µM [2, 5]: 20 to 50% |
| COc1ccc2c(c1)-c1[nH]ncc1Cc1c(-c3noc(C4(OC)CC4)n3)ncn1-2 [Compound 188] |  |  | Ki [1, 6]: < 100 nM; activation at 0.1 µM [2, 5]: > 50% |
| COc1ccc2c(c1)-c1nn(C)cc1Cc1c(-c3noc(COC4CCCC4)n3)ncn1-2 [Compound 297] | < 100 nM | 5 to 20% |  |
| COc1ccc2c(c1)-c1nn(C(C)C)cc1Cc1c(-c3nc(C4CC4)no3)ncn1-2 [Compound 169] |  |  | Ki [1, 6]: < 100 nM; activation at 0.1 µM [2, 5]: 5 to 20% |
| COc1ccc2c(c1)-c1[nH]ncc1Cc1c(-c3nc(C(F)(F)F)no3)ncn1-2 [Compound 45] | < 100 nM | 20 to 50% |  |
| COc1ccc2c(c1)-c1c(cnn1CC1CCCO1)Cc1c(-c3nc(C(C)C)no3)ncn1-2 (stereo not shown) [Compound 244] | < 100 nM | 5 to 20% |  |
| COc1ccc2c(c1)-c1nn(CC3CC3)cc1Cc1c(-c3nc(C(F)(F)F)no3)ncn1-2 [Compound 116] | < 100 nM | 5 to 20% |  |
| COc1ccc2c(c1)-c1nn(C)cc1Cc1c(-c3nc(C4CC4)no3)ncn1-2 [Compound 120] |  |  | Ki [1, 6]: < 100 nM; activation at 0.1 µM [2, 5]: 20 to 50% |
| Clc1ccc2c(c1)-c1[nH]ncc1Cc1c(-c3cnco3)ncn1-2 [Compound 93] |  |  | Ki [1, 6]: < 100 nM; activation at 0.1 µM [2, 5]: 5 to 20% |
| COc1ccc2c(c1)-c1nn(C)cc1Cc1c(-c3noc(C(C)(C)OC)n3)ncn1-2 [Compound 185] | < 100 nM | 20 to 50% |  |
| Clc1ccc2c(c1)-c1c(cnn1CC1CC1)Cc1c(-c3nc(C4CC4)no3)ncn1-2 [Compound 162] | < 100 nM | 5 to 20% |  |
| CCn1cc2c(n1)-c1cc(Cl)ccc1-n1cnc(-c3nc(C)no3)c1C2 [Compound 159] | < 100 nM | 20 to 50% |  |
| COc1ccc2c(c1)-c1nn(CC3CCCO3)cc1Cc1c(-c3noc(COCC(F)(F)F)n3)ncn1-2 (stereo not shown) [Compound 292] | < 100 nM | 5 to 20% |  |
| Cn1cc2c(n1)-c1cc(Cl)ccc1-n1cnc(-c3nc(C4CC4)no3)c1C2 [Compound 127] | < 100 nM | 20 to 50% |  |
| CCn1cc2c(n1)-c1cc(Cl)ccc1-n1cnc(-c3noc(C(C)C)n3)c1C2 [Compound 175] |  |  | Ki [1, 6]: < 100 nM; activation at 0.1 µM [2, 5]: 20 to 50% |
| COc1ccc2c(c1)-c1nn(C)cc1Cc1c(-c3nc(C(F)(F)F)no3)ncn1-2 [Compound 119] | < 100 nM | 5 to 20% |  |
| COC(C)(C)c1nc(-c2ncn3c2Cc2cn(C)nc2-c2cc(Cl)ccc2-3)no1 [Compound 214] | < 100 nM | > 50% |  |
